# Reference: patent US20250204564A1, “TASTE MODIFYING COMPOSITIONS AND USES THEREOF” (Firmenich Incorporated, priority 2022, published 2025)
# Key:
# Format in all cases: in vivo
# [1] = tested on: Bitterness of Acetaminophen; experiment: Blinded paired taste comparison, bitterness of acetaminophen; details: for C Chosen: panelists choosing comparative sample C as highest bitterness; for Test Sample Chosen: panelists choosing test sample as highest bitterness
# Protocol: (§1) A series of test samples and a comparative sample were prepared. The comparative sample (C) contained acetaminophen in water at a concentration of 90 mM. Four test samples were prepared. Each test sample contained acetaminophen in water at a concentration of 90 mM. In addition, one test sample (S1) also contained TM1 at 100 ppm, another sample (S2) contained TM1 at 50 ppm, another sample (S3) contained TM1 at 25 ppm, and another sample (S4) contained TM1 at 10 ppm. Sample pairs, a test sample and a comparative sample, were presented in a blinded fashion to panelists, they were asked to taste the samples and identify the sample with the highest bitterness.
# [2] = tested on: Bitterness of Guaifenesin; experiment: Blinded paired taste comparison, bitterness of guaifenesin; details: 39 panelists
# Protocol: (§2) A test sample and a comparative sample were prepared. The comparative sample (C) contained guaifenesin in water at a concentration of 24 mM. The test sample (S1) contained guaifenesin in water at a concentration of 24 mM and TM1 at a concentration of 50 ppm. Sample pairs, a test sample and a comparative sample, were presented in a blinded fashion to panelists, they were asked to taste the samples and identify the sample with the highest bitterness.
# [3] = tested on: Bitterness of Green Tea; experiment: Blinded paired taste comparison, bitterness of green tea extract; details: 39 panelists; for C Chosen: panelists choosing comparative sample C as highest bitterness; for Test Sample Chosen: panelists choosing test sample as highest bitterness
# Protocol: as §1, with “green tea extract” for “acetaminophen”, “0.30 wt %. Two” for “90 mM. Four”, “0.30 wt %.” for “90 mM.”, “20” for “100”, “ppm, and” for “ppm,”, “40” for “50 ppm, another sample (S3) contained TM1 at 25 ppm, and another sample (S4) contained TM1 at 10”
# [4] = tested on: Bitterness of Ginseng; experiment: Blinded paired taste comparison, bitterness of ginseng; details: sample S1: TM1 10 ppm + ginseng 0.036 wt % in water vs C, 39 panelists
# Protocol: as §2, with “ginseng” for “guaifenesin”, “0.036 wt %.” for “24 mM.”, “0.036 wt %” for “24 mM”, “10” for “50”
# [5] = tested on: Bitterness of Caffeine; experiment: Blinded paired taste comparison, bitterness of caffeine; details: sample S1: TM1 10 ppm + caffeine 0.08 wt % in water vs C, 39 panelists
# Protocol: as §2, with “caffeine” for “guaifenesin”, “0.08 wt %.” for “24 mM.”, “0.08 wt %” for “24 mM”, “10” for “50”
# [6] = tested on: Bitterness of Potato Protein; experiment: Blinded paired taste comparison, bitterness of potato protein; details: sample S1: TM1 10 ppm + potato protein 4 wt % in water vs C, 39 panelists
# Protocol: as §2, with “potato protein” for “guaifenesin”, “4 wt %.” for “24 mM.”, “4 wt %” for “24 mM”, “10” for “50”
# [7] = tested on: Bitterness of Pea Protein; experiment: Blinded paired taste comparison, bitterness of pea protein; details: sample S1: TM1 10 ppm + pea protein 4 wt % in water vs C, 30 panelists
# Protocol: as §2, with “pea protein” for “guaifenesin”, “4 wt %.” for “24 mM.”, “4 wt %” for “24 mM”, “10” for “50”
# [8] = tested on: Bitterness of Saccharin; experiment: Blinded paired taste comparison, bitterness of saccharin; details: sample S1: TM1 10 ppm + saccharin 1000 ppm in water vs C, 33 panelists
# Protocol: as §2, with “saccharin” for “guaifenesin”, “1000 ppm.” for “24 mM.”, “1000 ppm” for “24 mM”, “10” for “50”
# [9] = tested on: Bitterness of Grapefruit Juice; experiment: Blinded paired taste comparison, bitterness of grapefruit juice; details: 39 panelists
# Protocol: as §2, with “consisted” for “contained guaifenesin in water at a concentration”, “grapefruit juice.” for “24 mM.”, “grapefruit juice” for “24 mM”, “10” for “50”
# [10] = tested on: Bitterness of Coffee; experiment: Blinded paired taste comparison, bitterness of instant coffee; details: sample S1: TM1 10 ppm in instant coffee (Taster's Choice French Roast) vs C, 33 panelists
# Protocol: A test sample and a comparative sample were prepared. The comparative sample (C) instant coffee (Taster's Choice French Roast, acquired in the United States) made according to the directions. The test sample (S1) consisted of instant coffee (Taster's Choice French Roast, acquired in the United States) made according to the directions and TM1 at a concentration of 10 ppm. Sample pairs, a test sample and a comparative sample, were presented in a blinded fashion to panelists, they were asked to taste the samples and identify the sample with the highest bitterness.
# [11] = sample S2: TM1 50 ppm + acetaminophen 90 mM in water vs C, 48 panelists
# [12] = sample S3: TM1 25 ppm + acetaminophen 90 mM in water vs C, 45 panelists
# [13] = sample S4: TM1 10 ppm + acetaminophen 90 mM in water vs C, 45 panelists
# [14] = sample S1: TM1 20 ppm + green tea extract 0.30 wt % in water vs C
# [15] = sample S2: TM1 40 ppm + green tea extract 0.30 wt % in water vs C
# [16] = panelists choosing comparative sample C as highest bitterness
# [17] = panelists choosing test sample as highest bitterness
smiles,measurement,setting,value
"CC(=O)c1cc2c(cc1NC(=O)CN1CCN(C(C)=O)CC1)OCCO2 [TM1, N-(7-acetyl-2,3-dihydrobenzo[b][1,4]dioxin-6-yl)-2-(4-acetylpiperazin-1-yl)acetamide]",C Chosen,"[1]; sample S1: TM1 100 ppm + acetaminophen 90 mM in water vs C, 31 panelists",27
same,C Chosen,[1]; [11],39
same,C Chosen,[1]; [12],33
same,C Chosen,[1]; [13],31
same,Test Sample Chosen,"[1]; sample S1: TM1 100 ppm + acetaminophen 90 mM in water vs C (acetaminophen 90 mM), 31 panelists",4
same,Test Sample Chosen,[1]; [11],9
same,Test Sample Chosen,[1]; [12],12
same,Test Sample Chosen,[1]; [13],14
same,C Chosen,"[2]; panelists choosing comparative sample C as highest bitterness, sample S1: TM1 50 ppm + guaifenesin 24 mM in water vs C",32
same,Test Sample Chosen,"[2]; panelists choosing test sample as highest bitterness, sample S1: TM1 50 ppm + guaifenesin 24 mM in water vs C (guaifenesin 24 mM)",7
same,C Chosen,[3]; [14],28
same,C Chosen,[3]; [15],26
same,Test Sample Chosen,[3]; [14],11
same,Test Sample Chosen,[3]; [15],13
same,C Chosen,[4]; [16],26
same,Test Sample Chosen,[4]; [17],13
same,C Chosen,[5]; [16],29
same,Test Sample Chosen,[5]; [17],10
same,C Chosen,[6]; [16],26
same,Test Sample Chosen,[6]; [17],13
same,C Chosen,[7]; [16],20
same,Test Sample Chosen,[7]; [17],10
same,C Chosen,[8]; [16],24
same,Test Sample Chosen,[8]; [17],9
same,C Chosen,"[9]; panelists choosing comparative sample C as highest bitterness, sample S1: TM1 10 ppm in grapefruit juice vs C",26
same,Test Sample Chosen,"[9]; panelists choosing test sample as highest bitterness, sample S1: TM1 10 ppm in grapefruit juice vs C (grapefruit juice)",13
same,C Chosen,[10]; [16],27
same,Test Sample Chosen,[10]; [17],6
